The structures appear in SMILES notation. *1 amine or outer side, *2 acyl side, *3 side chain or, on linkers, in order; H or OH if unused. Where a SMILES comes first, the peptide text is derived from it. Bridges are numbered along the chain shown (N, C = ends). [ ]: non-standard residue; d: D form. The star is where a group is joined. hPhe(3-Cl-4-CF3) = N[C@@H](CCc1ccc(C(F)(F)F)c(Cl)c1)C(=O)O; X17 = CCCCN([C@@H](Cc1ccc(C(F)(F)F)cc1)C(=O)[*:2])[*:1]; NPrPhe(4-CF3) = CCCN[C@@H](Cc1ccc(C(F)(F)F)cc1)C(=O)O; Pip(4,4-F2) = O=C(O)[C@@H]1CC(F)(F)CCN1; NMeGly(cPent) = CN[C@H](C(=O)O)C1CCCC1; NMeD = CN[C@@H](CC(=O)O)C(=O)O; NMeL = CN[C@@H](CC(C)C)C(=O)O; Morpholide = C1CN(*)CCO1; Ac5c = NC1(C(=O)O)CCCC1; Aze = O=C(O)[C@@H]1CCN1; Sar = CNCC(=O)O

The target in assay [1] is GDP-bound HRAS wild-type protein (Homo sapiens, UniProt P01112). Description: Binding to HRAS by surface plasmon resonance (SPR), Single Cycle Kinetics. The note with it: SPR; for HRAS/KRAS (ratio of KD value with respect to HRAS to KD value with respect to KRAS): GDP-bound HRAS wild-type vs GDP-bound KRAS wild-type. On the technique in general: In SPR one partner is held on a chip, and binding of the other changes the refractive index at the surface.

For assay [2], the target named is GDP-bound NRAS wild-type protein (Homo sapiens, UniProt P01111). Description: Binding to NRAS by surface plasmon resonance (SPR), Single Cycle Kinetics. The note with it: SPR; for NRAS/KRAS (ratio of KD value with respect to NRAS to KD value with respect to KRAS): GDP-bound NRAS wild-type vs GDP-bound KRAS wild-type.
Chain of GDP-bound NRAS wild-type protein (P01111 whole entry): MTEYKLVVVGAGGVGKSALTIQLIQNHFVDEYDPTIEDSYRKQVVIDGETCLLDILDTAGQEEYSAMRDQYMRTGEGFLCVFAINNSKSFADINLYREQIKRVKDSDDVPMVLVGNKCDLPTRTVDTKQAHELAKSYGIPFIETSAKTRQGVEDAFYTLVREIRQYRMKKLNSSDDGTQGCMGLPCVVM

Chain of GDP-bound HRAS wild-type protein (P01112 whole entry): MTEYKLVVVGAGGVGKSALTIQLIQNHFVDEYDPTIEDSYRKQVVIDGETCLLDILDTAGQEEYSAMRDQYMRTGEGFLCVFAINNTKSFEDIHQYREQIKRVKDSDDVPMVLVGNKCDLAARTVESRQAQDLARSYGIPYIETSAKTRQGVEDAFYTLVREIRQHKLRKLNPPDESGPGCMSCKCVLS

For the molecule `CCC[C@H]1C(=O)N[C@@H]([C@@H](C)CC)C(=O)N(C2CC2)CC(=O)N(C)[C@H]2C/C=C\CCN(C2=O)[C@@H](Cc2ccc(C)cc2)C(=O)N(C)CC(=O)N[C@@H](CCc2cc(F)c(C(F)(F)F)c(F)c2)C(=O)N2C[C@H](OCC)C[C@H]2C(=O)NC2(CC(C)(C)C2)C(=O)N(C)[C@@H](C2CCCC2)C(=O)N(C)[C@H](C(=O)N(C)C)CC(=O)N1C` [PP2093, (2S,8S,12R,14S,20S,23S,27S,30S,36S,38Z)-20-cyclopentyl-32-cyclopropyl-8-[2-[3,5-difluoro-4-(trifluoromethyl)phenyl]ethyl]-12-ethoxy-N,N,3′,3′,4,19,22,26,35-nonamethyl-30-[(1S)-1-methylpropyl]-3,6,9,15,18,21,25,28,31,34,42-undecaoxo-27-propyl-2-(p-tolylmethyl)spiro[1,4,7,10,16,19,22,26,29,32,35-undecazatricyclo[34.5.1.0^10,14]dotetracont-38-ene-17,1′-cyclobutane]-23-carboxamide], the “HRAS/KRAS (ratio of KD value with respect to HRAS to KD value with respect to KRAS)” value in assay [1] is “A (a compound having 10 or more and less than 20 is denoted as A)”. For the same molecule, the “NRAS/KRAS (ratio of KD value with respect to NRAS to KD value with respect to KRAS)” value in assay [2] was “A (a compound having 10 or more and less than 20 is denoted as A)”.
With `CCCOC[C@H]1C(=O)N[C@@H]([C@@H](C)CC)C(=O)N(C)CC(=O)N(C)[C@H]2C/C=C\CCN(C2=O)[C@@H](Cc2ccc(C)cc2)C(=O)N(C)CC(=O)N[C@@H](CCc2ccc(C(F)(F)F)c(Cl)c2)C(=O)N2C[C@@H](C)C[C@H]2C(=O)NC2(CC(C)(C)C2)C(=O)N(C)[C@@H](C2CCCC2)C(=O)N(C)[C@H](C(=O)N(C)CC)CC(=O)N1C` [PP2467], in assay [1], the “HRAS/KRAS (ratio of KD value with respect to HRAS to KD value with respect to KRAS)” value was “B (a compound having 3 or more and less than 10 is denoted as B)”. In addition, the “NRAS/KRAS (ratio of KD value with respect to NRAS to KD value with respect to KRAS)” value in assay [2] was “A (a compound having 10 or more and less than 20 is denoted as A)”.
As for `CCCN1C(=O)CN(C)C(=O)[C@@H]2CCN2C(=O)[C@H]([C@@H](C)CC)NC(=O)[C@H](CC(C)C)N(C)C(=O)C[C@@H](C(=O)N2CCOCC2)N(C)C(=O)[C@H](C2CCCC2)N(C)C(=O)C2(CCCC2)NC(=O)[C@@H]2CC(F)(F)CCN2C(=O)[C@H](CCc2ccc(C(F)(F)F)c(Cl)c2)NC(=O)CN(C)C(=O)[C@@H]1Cc1ccc(C(F)(F)F)cc1` [PP0312] ([NMeL]I[Aze][Sar][NPrPhe(4-CF3)][Sar][hPhe(3-Cl-4-CF3)][Pip(4,4-F2)][Ac5c][NMeGly(cPent)][NMeD]-Morpholide; lactam N-11), the “HRAS/KRAS (ratio of KD for GDP-bound HRAS wild-type to KD for KRAS)” value in assay [1] is “B (a compound having 3 or more and less than 10 is denoted as B)”. Moreover, the “NRAS/KRAS (ratio of KD for GDP-bound NRAS wild-type to KD for KRAS)” value in assay [2] is “B (a compound having 3 or more and less than 10 is denoted as B)”.
On to `CCCCN1C(=O)CN(C)C(=O)CN(C)C(=O)[C@H]([C@@H](C)CC)NC(=O)[C@H](CC(C)C)N(C)C(=O)C[C@@H](C(=O)N2CCOCC2)N(C)C(=O)[C@H](C2CCCC2)N(C)C(=O)C2(CCCC2)NC(=O)[C@@H]2CCCN2C(=O)[C@H](CCc2ccc(C(F)(F)F)c(Cl)c2)NC(=O)CN(C)C(=O)[C@@H]1Cc1ccc(C(F)(F)F)cc1` [PP0120] ([NMeL]I[Sar][Sar][X17][Sar][hPhe(3-Cl-4-CF3)]P[Ac5c][NMeGly(cPent)][NMeD]-Morpholide; lactam N-11), for which the “HRAS/KRAS (ratio of KD for GDP-bound HRAS wild-type to KD for KRAS)” value in assay [1] was “C (A compound having a KD ratio of 0.1 or more and less than 3 is denoted as C)”. In assay [2], the “NRAS/KRAS (ratio of KD for GDP-bound NRAS wild-type to KD for KRAS)” value was “B (a compound having 3 or more and less than 10 is denoted as B)”.

The values are drawn from patent US20250230193A1, “CYCLIC COMPOUND HAVING SELECTIVE KRAS INHIBITORY EFFECT ON HRAS AND NRAS” (CHUGAI SEIYAKU KABUSHIKI KAISHA, priority 2022, published 2025).
